The values that follow are results of earlier work, collected in PubChem BioAssay AID1259409 (Chemical Carcinogenesis Research Information System (CCRIS), 2018).

Values joined by “and” are separate entries in the source; they are usually repeats but may differ in a detail not shown here. Equal entries are not always repeated.

The subject of the series is rodent chemically induced tumor inhibition, incidence and multiplicity. Put plainly: CCRIS tumor inhibitor studies. The settings on record: Species: RAT.

Regarding `COc1ccc2c(c1)c(CC(=O)O)c(C)n2C(=O)c1ccc(Cl)cc1`, the “tumour outcome (control, treated, inhibition, significance)” value runs as follows: (Carcinogen: DIETHYLNITROSAMINE, 55-18-5, N-METHYL-N-NITROSOUREA, 684-93-5, N-BUTYL-N-(4-HYDROXYBUTYL)NITROSAMINE, 3817-11-6, 1,2-DIM, Carcinogen: DIETHYLNITROSAMINE, 55-18-5, N-METHYL-N-NITROSOUREA, 684-93-5, N-BUTYL-N-(4-HYDROXYBUTYL)NITROSAMINE, 3817-11-6, 1,2-DIM, Dose [Inhibitor]: 0, 20 PPM IN DRINKING WATER FOR 23 WK BEGINNING 1 WK POST CARCINOGEN TREATMENT (STUDY DURATION: 28 WK), Route [Inhibitor]: ORAL, Strain/Sex: F344/MALE, Target Tissue: Type of Lesion: LARGE INTESTINE: ADENOCARCINOMA, Dose [Carcinogen]: 100 MG/KG BW DEN ONCE, 20 MG/KG BW MNU ONCE ON DAYS 6,9, AND 12, 0.05% BBN IN DRINKING WATER FOR FIRST TWO WK, 40 MG/KG, Dose [Carcinogen]: 100 MG/KG BW DEN ONCE, 20 MG/KG BW MNU ONCE ON DAYS 6,9, AND 12, 0.05% BBN IN DRINKING WATER FOR FIRST TWO WK, 40 MG/KG, Promoter: NONE USED) 2/20 (10%), 0/19 (0%), 100%, not significant; (Carcinogen: DIETHYLNITROSAMINE, 55-18-5, N-METHYL-N-NITROSOUREA, 684-93-5, N-BUTYL-N-(4-HYDROXYBUTYL)NITROSAMINE, 3817-11-6, 1,2-DIM, Carcinogen: DIETHYLNITROSAMINE, 55-18-5, N-METHYL-N-NITROSOUREA, 684-93-5, N-BUTYL-N-(4-HYDROXYBUTYL)NITROSAMINE, 3817-11-6, 1,2-DIM, Dose [Inhibitor]: 0, 20 PPM IN DRINKING WATER FOR 23 WK BEGINNING 1 WK POST CARCINOGEN TREATMENT (STUDY DURATION: 28 WK), Route [Inhibitor]: ORAL, Strain/Sex: F344/MALE, Target Tissue: Type of Lesion: LARGE INTESTINE: ADENOMA, Dose [Carcinogen]: 100 MG/KG BW DEN ONCE, 20 MG/KG BW MNU ONCE ON DAYS 6,9, AND 12, 0.05% BBN IN DRINKING WATER FOR FIRST TWO WK, 40 MG/KG, Dose [Carcinogen]: 100 MG/KG BW DEN ONCE, 20 MG/KG BW MNU ONCE ON DAYS 6,9, AND 12, 0.05% BBN IN DRINKING WATER FOR FIRST TWO WK, 40 MG/KG, Promoter: NONE USED) 3/20 (15%), 0/19 (0%), 100%, not significant; (Carcinogen: DIETHYLNITROSAMINE, 55-18-5, N-METHYL-N-NITROSOUREA, 684-93-5, N-BUTYL-N-(4-HYDROXYBUTYL)NITROSAMINE, 3817-11-6, 1,2-DIM, Carcinogen: DIETHYLNITROSAMINE, 55-18-5, N-METHYL-N-NITROSOUREA, 684-93-5, N-BUTYL-N-(4-HYDROXYBUTYL)NITROSAMINE, 3817-11-6, 1,2-DIM, Dose [Inhibitor]: 0, 20 PPM IN DRINKING WATER FOR 23 WK BEGINNING 1 WK POST CARCINOGEN TREATMENT (STUDY DURATION: 28 WK), Route [Inhibitor]: ORAL, Strain/Sex: F344/MALE, Target Tissue: Type of Lesion: LIVER: HEPATOCELLULAR ADENOMA, HYPERPLASTIC NODULE, Dose [Carcinogen]: 100 MG/KG BW DEN ONCE, 20 MG/KG BW MNU ONCE ON DAYS 6,9, AND 12, 0.05% BBN IN DRINKING WATER FOR FIRST TWO WK, 40 MG/KG, Dose [Carcinogen]: 100 MG/KG BW DEN ONCE, 20 MG/KG BW MNU ONCE ON DAYS 6,9, AND 12, 0.05% BBN IN DRINKING WATER FOR FIRST TWO WK, 40 MG/KG, Promoter: NONE USED) 2/20 (10%), 7/19 (37%), -270%, not significant; (Carcinogen: DIETHYLNITROSAMINE, 55-18-5, N-METHYL-N-NITROSOUREA, 684-93-5, N-BUTYL-N-(4-HYDROXYBUTYL)NITROSAMINE, 3817-11-6, 1,2-DIM, Carcinogen: DIETHYLNITROSAMINE, 55-18-5, N-METHYL-N-NITROSOUREA, 684-93-5, N-BUTYL-N-(4-HYDROXYBUTYL)NITROSAMINE, 3817-11-6, 1,2-DIM, Dose [Inhibitor]: 0, 20 PPM IN DRINKING WATER FOR 23 WK BEGINNING 1 WK POST CARCINOGEN TREATMENT (STUDY DURATION: 28 WK), Route [Inhibitor]: ORAL, Strain/Sex: F344/MALE, Target Tissue: Type of Lesion: LUNG: ADENOCARCINOMA, Dose [Carcinogen]: 100 MG/KG BW DEN ONCE, 20 MG/KG BW MNU ONCE ON DAYS 6,9, AND 12, 0.05% BBN IN DRINKING WATER FOR FIRST TWO WK, 40 MG/KG, Dose [Carcinogen]: 100 MG/KG BW DEN ONCE, 20 MG/KG BW MNU ONCE ON DAYS 6,9, AND 12, 0.05% BBN IN DRINKING WATER FOR FIRST TWO WK, 40 MG/KG, Promoter: NONE UESD) 1/20 (5%), 0/19 (0%), 100%, not significant; (Carcinogen: DIETHYLNITROSAMINE, 55-18-5, N-METHYL-N-NITROSOUREA, 684-93-5, N-BUTYL-N-(4-HYDROXYBUTYL)NITROSAMINE, 3817-11-6, 1,2-DIM, Carcinogen: DIETHYLNITROSAMINE, 55-18-5, N-METHYL-N-NITROSOUREA, 684-93-5, N-BUTYL-N-(4-HYDROXYBUTYL)NITROSAMINE, 3817-11-6, 1,2-DIM, Dose [Inhibitor]: 0, 20 PPM IN DRINKING WATER FOR 23 WK BEGINNING 1 WK POST CARCINOGEN TREATMENT (STUDY DURATION: 28 WK), Route [Inhibitor]: ORAL, Strain/Sex: F344/MALE, Target Tissue: Type of Lesion: LUNG: ADENOMA, Dose [Carcinogen]: 100 MG/KG BW DEN ONCE, 20 MG/KG BW MNU ONCE ON DAYS 6,9, AND 12, 0.05% BBN IN DRINKING WATER FOR FIRST TWO WK, 40 MG/KG, Dose [Carcinogen]: 100 MG/KG BW DEN ONCE, 20 MG/KG BW MNU ONCE ON DAYS 6,9, AND 12, 0.05% BBN IN DRINKING WATER FOR FIRST TWO WK, 40 MG/KG, Promoter: NONE USED) 8/20 (40%), 2/19 (11%), 73%, p<0.05; (Carcinogen: DIETHYLNITROSAMINE, 55-18-5, N-METHYL-N-NITROSOUREA, 684-93-5, N-BUTYL-N-(4-HYDROXYBUTYL)NITROSAMINE, 3817-11-6, 1,2-DIM, Carcinogen: DIETHYLNITROSAMINE, 55-18-5, N-METHYL-N-NITROSOUREA, 684-93-5, N-BUTYL-N-(4-HYDROXYBUTYL)NITROSAMINE, 3817-11-6, 1,2-DIM, Dose [Inhibitor]: 0, 20 PPM IN DRINKING WATER FOR 23 WK BEGINNING 1 WK POST CARCINOGEN TREATMENT (STUDY DURATION: 28 WK), Route [Inhibitor]: ORAL, Strain/Sex: F344/MALE, Target Tissue: Type of Lesion: THYROID: FOLLICULAR ADENOMA, Dose [Carcinogen]: 100 MG/KG BW DEN ONCE, 20 MG/KG BW MNU ONCE ON DAYS 6,9, AND 12, 0.05% BBN IN DRINKING WATER FOR FIRST TWO WK, 40 MG/KG, Dose [Carcinogen]: 100 MG/KG BW DEN ONCE, 20 MG/KG BW MNU ONCE ON DAYS 6,9, AND 12, 0.05% BBN IN DRINKING WATER FOR FIRST TWO WK, 40 MG/KG, Promoter: NONE USED) 6/20 (30%), 2/19 (11%), 63%, not significant and 1/20 (5%), 1/19 (5%), 0%, not significant. For the same compound, the “tumour outcome (control, treated, inhibition, significance)” value (Carcinogen: DIETHYLNITROSAMINE, 55-18-5, N-METHYL-N-NITROSOUREA;684-93-5, N-BUTYL-N-(4-HYDROXYBUTYL)NITROSAMINE, 3817-11-6, 1,2-DIME, Carcinogen: DIETHYLNITROSAMINE, 55-18-5, N-METHYL-N-NITROSOUREA;684-93-5, N-BUTYL-N-(4-HYDROXYBUTYL)NITROSAMINE, 3817-11-6, 1,2-DIME, Dose [Inhibitor]: 0, 20 PPM IN DRINKING WATER FOR 23 WK BEGINNING 1 WK POST CARCINOGEN TREATMENT (STUDY DURATION: 28 WK), Route [Inhibitor]: ORAL, Strain/Sex: F344/MALE, Target Tissue: Type of Lesion: SMALL INTESTINE: ADENOMA, Dose [Carcinogen]: 100 MG/KG BW DEN ONCE, 20 MG/KG BW MNU ONCE ON DAYS 6,9, AND 12, 0.05% BBN IN DRINKING WATER FOR FIRST TWO WK, 40 MG/KG, Dose [Carcinogen]: 100 MG/KG BW DEN ONCE, 20 MG/KG BW MNU ONCE ON DAYS 6,9, AND 12, 0.05% BBN IN DRINKING WATER FOR FIRST TWO WK, 40 MG/KG, Promoter: NONE USED) is reported as 5/20 (25%), 0/19 (0%), 100%, p<0.05; the “tumour outcome (control, treated, inhibition, significance)” value (Carcinogen: DIETHYLNITROSAMINE, 55-18-5, N-METHYL-N-NITROSOUREA, 684-93-5, N-METHYL-N-(4-HYDROXYBUTYL)NITROSAMINE, 3817-11-6, 1,2-DI, Carcinogen: DIETHYLNITROSAMINE, 55-18-5, N-METHYL-N-NITROSOUREA, 684-93-5, N-METHYL-N-(4-HYDROXYBUTYL)NITROSAMINE, 3817-11-6, 1,2-DI, Dose [Inhibitor]: 0, 20 PPM IN DRINKING WATER FOR 23 WK BEGINNING 1 WK POST CARCINOGEN TREATMENT (STUDY DURATION: 28 WK), Route [Inhibitor]: ORAL, Strain/Sex: F344/MALE, Target Tissue: Type of Lesion: SMALL INTESTINE: ADENOCARCINOMA, Dose [Carcinogen]: 100 MG/KG BW DEN ONCE, 20 MG/KG BW MNU ONCE ON DAYS 6,9, AND 12, 0.05% BBN IN DRINKING WATER FOR FIRST TWO WK, 40 MG/KG, Dose [Carcinogen]: 100 MG/KG BW DEN ONCE, 20 MG/KG BW MNU ONCE ON DAYS 6,9, AND 12, 0.05% BBN IN DRINKING WATER FOR FIRST TWO WK, 40 MG/KG, Promoter: NONE USED) is recorded as 2/20 (10%), 0/19 (0%), 100%, not significant; the “tumour outcome (control, treated, inhibition, significance)” value (Carcinogen: METHYLAZOXYMETHANOL, 590-96-5, Dose [Inhibitor]: 7.5 MG/KG BW DAILY FOR 3 WK STARTING 27 WK AFTER THE START OF CARCINOGEN TREATMENT (STUDY DURATION: 30 WK), Route [Inhibitor]: INTRARECTAL, Strain/Sex: DONRYU/MALE, Target Tissue: Type of Lesion: LARGE INTESTINE: ADENOCARCINOMA, Dose [Carcinogen]: 20 MG/KG BW 1/WK FOR 6 WK, Promoter: NONE USED) was 19/23 (83%), 15/30 (50%), 40%, p<0.05. Moreover, the outcome (Carcinogen: DIETHYLNITROSAMINE, 55-18-5, N-METHYL-N-NITROSOUREA, 684-93-5, N-BUTYL-N-(4-HYDROXYBUTYL)NITROSAMINE, 3817-11-6, 1,2-DIM, Carcinogen: DIETHYLNITROSAMINE, 55-18-5, N-METHYL-N-NITROSOUREA, 684-93-5, N-BUTYL-N-(4-HYDROXYBUTYL)NITROSAMINE, 3817-11-6, 1,2-DIM, Dose [Inhibitor]: 0, 20 PPM IN DRINKING WATER FOR 23 WK BEGINNING 1 WK POST CARCINOGEN TREATMENT (STUDY DURATION: 28 WK), Route [Inhibitor]: ORAL, Strain/Sex: F344/MALE, Target Tissue: Type of Lesion: LIVER: HEPATOCELLULAR ADENOMA, Dose [Carcinogen]: 100 MG/KG BW DEN ONCE, 20 MG/KG BW MNU ONCE ON DAYS 6,9, AND 12, 0.05% BBN IN DRINKING WATER FOR FIRST TWO WK, 40 MG/KG, Dose [Carcinogen]: 100 MG/KG BW DEN ONCE, 20 MG/KG BW MNU ONCE ON DAYS 6,9, AND 12, 0.05% BBN IN DRINKING WATER FOR FIRST TWO WK, 40 MG/KG, Promoter: NONE) was 0/20 (0%), 0/19 (0%), 0%, not significant.
